{"source": "paper PMC4186430", "about": "“Modeling of age-dependent amyloid accumulation and γ-secretase inhibition of soluble and insoluble Aβ in a transgenic mouse model of amyloid deposition” (Pharmacology Research & Perspectives, 2013)", "key": {"[1]": {"test": "Population pharmacokinetic modeling of MRK-560 plasma and brain exposure in mice", "type": "in vivo, C57BL/6, Tg2576 and Tg2576 wild-type littermate mice", "description": "C57BL/6 female mice (Harlan Laboratories, Horst, The Netherlands), Tg2576 transgenic female mice (Taconics, Georgetown, NY), overexpressing human APP with the Swedish mutation (Hsiao et al. [1996]), and Tg2576 wild-type littermates were used in the experiments. The C57BL/6 and wild-type littermates were only used for pharmacokinetic PK sampling and analysis. The housing environment was humidity- and temperature-controlled with a constant 12-h light/dark cycle. The animals were kept in conventional housing (5–10 mice per cage) and had access to standard rodent chow and tap water ad libitum. The transgenic mice were aged at the local AstraZeneca (AZ) animal facilities. On the day of study, the mice were weighed. MRK-560 (synthesized in-house; AZ) or vehicle was administered by oral gavage. Three types of vehicles were used: (1) 1% MCC/NaCMC (Microcrystalline Cellulose/Sodiumcarboxymethyl Cellulose) +0.6% lipoid S100, (2) 20% HPβCD in 0.1 mol/L Meglumine, and (3) 40% HPβCD in 0.3 mol/L Meglumine. Observations of the animals’ health were made throughout all the experiments. Data from 23 MRK-560 studies were used in this analysis and details of all studies can be found in Table 1. For the AP analysis, data from vehicle and untreated Tg2576 mice from 48 additional (i.e., non-MRK-560) in-house studies were used. The additional dataset consisted of Aβ levels measured in Tg2576 mice of various ages, between 3.5 and 26 months at termination. Details of those data can be found in Appelkvist et al. ([2011]). In total, data from 71 preclinical studies were used.\nBlood samples were collected by tail vein puncture in PK studies and occasionally in efficacy studies. At termination blood was withdrawn from anesthetized mice by heart puncture into prechilled microtainer Ethylenediaminetetraacetic acid tubes. Blood samples were immediately put on ice and centrifuged for 10 min at ∼3000g at +4°C within 20 min from sampling. Plasma was transferred to prechilled polypropylene tubes. The tubes were immediately frozen on dry ice and stored at −70°C until analysis.\nPlasma samples and standards were precipitated with acetonitrile containing internal standard. After centrifugation, supernatant was transferred to a new 96-well plate, diluted with mobile phase, and injected on the LC/MS/MS system (Waters Corporation, Sollentuna, Sweden) (Bueters et al. [2011]). For the determination of the compound concentration in the brain, frozen mouse brains were weighed, and an ice-cold Ringer solution (two volumes per weight) was added. The brains were sonicated using a Multi-element probe SONICS VCX 500 (Newtown, CT). To 50 μL homogenized tissue 150 μL ice-cold acetonitrile containing an internal standard was added in a precipitation plate (96-well PP-plate; Waters, Milford, MA). After mixing and centrifugation (4°C, 4000 rpm, 20 min), supernatant was transferred to an analysis plate (PP-plate, Waters) and analyzed by LC/MS/MS (Borgegård et al. [2011]). As the brains were not perfused before exposure analysis, a volume of 1.3% of blood in the brain and the concentration of compound in plasma were used to calculate the brain concentration (Richard [1968]; Park and Sinko [2005]).\nIn the pharmacokinetic analysis, one- and two-compartmental first-order models were evaluated to fit the MRK-560 concentration–time profiles in plasma and brain. Separate absorption rate constants were estimated for oral and subcutaneous route of administration. A dose-dependent bioavailability was assessed and was modeled using the function shown in equation (1): [drawing 1] (1)\nAn instantaneous distribution of the unbound compound between plasma and brain was assumed. The brain exposure was modeled using equation (2): [drawing 2] (2) where CP was the plasma concentration, θ4 was the brain:plasma concentration ratio, and fu,pl and fu,br were the plasma and brain unbound fraction, respectively. […]"}, "[2]": {"test": "Fraction unbound in brain, rat brain slice uptake method", "type": "in vitro ADME, Sprague-Dawley rats", "conditions": "male, Sprague-Dawley, brain slices (coronal slices of striatal areas, 300 μm), observed, 1 μmol/L compound, 37°C, read-out: fu,br (brain unbound fraction)", "experimental": "Determination of the fraction of compound unbound in the brain was determined in a rat brain slice uptake method (Fridén et al. [2009]; Borgegård et al. [2011]). In short, male Sprague-Dawley rats were decapitated under isoflurane anesthesia. The brains were immersed in an ice-cold oxygenated extracellular fluid (ECF) buffer. Coronal slices of the striatal areas (300 μm) were preincubated in a 10 mL ECF buffer for 5 min at 37°C followed by incubation with 1 μmol/L compound in an ECF buffer for 5 h at 37°C under 5% CO2 in oxygen. After incubation, brain slices were weighed and homogenized in nine volumes (w/v) of ECF buffer. The slice homogenates and ECF buffer were stored at −20°C prior to analysis. To 50 μL homogenized tissue, 150 μL ice-cold acetonitrile containing an internal standard was added in a precipitation plate. After mixing and centrifugation (4°C, 4000 rpm, 20 min), supernatant was transferred to the analysis plate and analyzed by LC/MS/MS."}}}
{"smiles": "O=S(=O)(NC1CCC(c2cc(F)ccc2F)(S(=O)(=O)c2ccc(Cl)cc2)CC1)C(F)(F)F", "note": "(stereo not drawn) [MRK-560, N-[cis-4-[(4-chlorophenyl)-sulfonyl]-4-(2,5-difluorophenyl)cyclohexyl]-1,1,1-trifluoromethanesulfonamide]", "values": [{"measurement": "Brain:plasma ratio", "setting": "[1]; estimated total brain:plasma ratio, constant over 0.01-15 μmol/L", "value": 0.31}, {"measurement": "Kp", "setting": "[1]; female, C57BL/6, Tg2576, Tg2576 wild-type littermates, mouse, brain, estimated total brain:plasma ratio, constant over 0.01-15 μmol/L", "value": 0.3}, {"measurement": "clearance", "setting": "[1]; female, C57BL/6, Tg2576, Tg2576 wild-type littermates, mouse, plasma, two-compartmental model", "value": 0.12, "unit": "L/h/kg"}, {"measurement": "differences in pharmacokinetics among C57BL/6, Tg2576 and Tg2576 wild-type littermates", "setting": "[1]; mouse, in vivo", "value": "No differences"}, {"measurement": "Q", "setting": "[1]; two-compartmental model", "value": 7.6, "unit": "L/h/kg"}, {"measurement": "V2", "setting": "[1]; two-compartmental model", "value": 0.28, "unit": "L/kg"}, {"measurement": "V3", "setting": "[1]; two-compartmental model", "value": 2.9, "unit": "L/kg"}, {"measurement": "KA (oral)", "setting": "[1]; two-compartmental model, absorption rate constant, oral", "value": 0.41, "unit": "h⁻¹"}, {"measurement": "KA (s.c.)", "setting": "[1]; two-compartmental model, absorption rate constant, s.c.", "value": 0.81, "unit": "h⁻¹"}, {"measurement": "plasma exposure with vehicles 2 and 3 compared to vehicle 1", "setting": "[1]; vehicles 2, 3 = HPβCD/Meglumine, vehicle 1 = 1% MCC/NaCMC+0.6% lipoid S100", "value": "fourfold higher"}, {"measurement": "fraction unbound at 5 h, 1 μmol/L", "setting": "[2]", "value": 0.0067}]}
